Holding throughout (type): functional, cell-based
Conditions in all cases: time 21.0 day

For assay [1], the system named is Mesenchymal stem cells. The assay is described as follows: Induction of osteogenesis differentiation in human Mesenchymal stem cells at 1 uM incubated for 21 days by Alizarin Red S staining-based microscopic analysis.
Assay [2] has as its system Mesenchymal stem cells. The assay is described as follows: Induction of osteogenesis differentiation in human Mesenchymal stem cells at 20 uM incubated for 21 days by Alizarin Red S staining-based microscopic analysis.
Assay [3] relates to Mesenchymal stem cells. Description: Induction of adipogenesis differentiation in human Mesenchymal stem cells at 1 uM incubated for 21 days by […] staining-based microscopic analysis.
Assay [4] concerns Mesenchymal stem cells. Description: Induction of osteogenesis differentiation in human Mesenchymal stem cells at 10 uM incubated for 21 days by Alizarin Red S staining-based microscopic analysis.
In assay [5] the test system is Mesenchymal stem cells. The assay is described as follows: Induction of adipogenesis differentiation in human Mesenchymal stem cells at 10 uM incubated for 21 days by […] staining-based microscopic analysis.
Assay [6] concerns Mesenchymal stem cells. Description: Induction of adipogenesis differentiation in human Mesenchymal stem cells at 20 uM incubated for 21 days by […] staining-based microscopic analysis.

The source made the active and inactive calls. The calls are words filed in the database; no cut-off is given here.

`Cc1nc(-c2ccccc2)sc1CN(C)c1ccc(/C=C/C(=O)O)cc1`: the outcome in the assay with Mesenchymal stem cells [1], in the assay on Mesenchymal stem cells [5] and in the assay on Mesenchymal stem cells [6] was Active. The outcome in the assay with Mesenchymal stem cells [2], in the assay with Mesenchymal stem cells [3] and in the assay on Mesenchymal stem cells [4] was inactive.
On to `CCc1cc(N(C)Cc2sc(-c3ccc(C(F)(F)F)cc3)nc2C)ccc1/C=C/C(=O)O`, for which the outcome in the assay on Mesenchymal stem cells [1], in the assay with Mesenchymal stem cells [2], in the assay with Mesenchymal stem cells [3], with Mesenchymal stem cells [4], in the assay on Mesenchymal stem cells [5] and in the assay with Mesenchymal stem cells [6] was Active.
For the molecule `Cc1sc(-c2ccc(C(F)(F)F)cc2)nc1CN(C)c1ccc(/C=C/C(=O)O)cc1`, the outcome in the assay with Mesenchymal stem cells [1] and with Mesenchymal stem cells [4] was Active. The outcome with Mesenchymal stem cells [2], in the assay on Mesenchymal stem cells [3], in the assay on Mesenchymal stem cells [5] and with Mesenchymal stem cells [6] was inactive.
Turning to `Cc1nn(-c2ccc(C(F)(F)F)cc2)nc1CNc1ccc(/C=C/C(=O)O)cc1`, the outcome in the assay with Mesenchymal stem cells [1], with Mesenchymal stem cells [2], in the assay with Mesenchymal stem cells [3], with Mesenchymal stem cells [4], in the assay on Mesenchymal stem cells [5] and with Mesenchymal stem cells [6] was Active.
Turning to `Cc1nc(-c2ccc(C(F)(F)F)cc2)sc1CN(C)c1ccc(/C=C/C(=O)O)c(C(C)C)c1`, the outcome with Mesenchymal stem cells [1], in the assay on Mesenchymal stem cells [2] and in the assay on Mesenchymal stem cells [4] was Active. In addition, the result with Mesenchymal stem cells [3], in the assay with Mesenchymal stem cells [5] and in the assay on Mesenchymal stem cells [6] was inactive.
For the molecule `COC(=O)/C=C/c1ccc(OCc2sc(-c3cccc(C(F)(F)F)c3)nc2C)cc1`, the result in the assay with Mesenchymal stem cells [1] was inactive. Also, the outcome with Mesenchymal stem cells [3] was Active.
On to `Cc1nc(-c2ccc(C(F)(F)F)c(F)c2)sc1CN(C(=O)OC(C)(C)C)c1ccc(/C=C/C(=O)O)cc1`, for which the outcome in the assay on Mesenchymal stem cells [1], in the assay on Mesenchymal stem cells [5] and in the assay with Mesenchymal stem cells [6] was Active. For the same molecule, the result in the assay with Mesenchymal stem cells [2], in the assay on Mesenchymal stem cells [3] and in the assay with Mesenchymal stem cells [4] was inactive.
As for `Cc1nc(-c2cccc(C(F)(F)F)c2)sc1CNc1ccc(/C=C/C(=O)O)cc1`, the outcome in the assay with Mesenchymal stem cells [1], with Mesenchymal stem cells [2] and with Mesenchymal stem cells [4] was inactive. Further, the result with Mesenchymal stem cells [3], in the assay on Mesenchymal stem cells [5] and in the assay on Mesenchymal stem cells [6] was Active.
On to `Cc1cc(/C=C/C(=O)O)ccc1N(C)Cc1sc(-c2ccc(C(F)(F)F)cc2)nc1C`, for which the result with Mesenchymal stem cells [1], in the assay on Mesenchymal stem cells [2] and with Mesenchymal stem cells [4] was Active. The outcome in the assay with Mesenchymal stem cells [3], in the assay with Mesenchymal stem cells [5] and in the assay on Mesenchymal stem cells [6] was inactive.
`Cc1nc(-c2ccc(C(F)(F)F)c(F)c2)sc1CNc1ccc(/C=C/C(=O)O)cc1`: the result with Mesenchymal stem cells [1], with Mesenchymal stem cells [5] and with Mesenchymal stem cells [6] was Active. Further, the result in the assay on Mesenchymal stem cells [2], in the assay with Mesenchymal stem cells [3] and in the assay on Mesenchymal stem cells [4] was inactive.
In the case of `CCCN(Cc1sc(-c2ccc(C(F)(F)F)cc2)nc1C)c1ccc(/C=C/C(=O)O)cc1`, the result in the assay on Mesenchymal stem cells [1], with Mesenchymal stem cells [4], in the assay with Mesenchymal stem cells [5] and with Mesenchymal stem cells [6] was Active. Moreover, the result in the assay with Mesenchymal stem cells [2] and in the assay with Mesenchymal stem cells [3] was inactive.
On to `Cc1nc(-c2ccccc2)sc1CSc1ccc(/C=C/C(=O)O)cc1`, for which the result with Mesenchymal stem cells [1], with Mesenchymal stem cells [3] and in the assay on Mesenchymal stem cells [5] was Active. Moreover, in the assay on Mesenchymal stem cells [4], the result was inactive.
`Cc1nc(-c2cccc(C(F)(F)F)c2)sc1COc1ccc(/C=C/C(=O)O)cc1`: the result in the assay with Mesenchymal stem cells [1] and in the assay on Mesenchymal stem cells [3] was Active.
Regarding `Cc1nc(-c2ccc(C(F)(F)F)cc2)sc1CN(c1ccc(/C=C/C(=O)O)cc1)C(C)C`, the outcome in the assay with Mesenchymal stem cells [1], with Mesenchymal stem cells [2] and in the assay on Mesenchymal stem cells [4] was Active. In addition, the outcome with Mesenchymal stem cells [3], in the assay with Mesenchymal stem cells [5] and in the assay with Mesenchymal stem cells [6] was inactive.
Turning to `Cc1nc(-c2ccccc2)sc1COc1ccc(/C=C/C(=O)O)cc1`, the outcome with Mesenchymal stem cells [1] and in the assay with Mesenchymal stem cells [4] was inactive. Further, the result in the assay on Mesenchymal stem cells [3] and in the assay with Mesenchymal stem cells [5] was Active.
On to `Cc1nc(-c2cccc(C(F)(F)F)c2)sc1CSc1ccc(/C=C/C(=O)O)cc1`, for which the result with Mesenchymal stem cells [1], with Mesenchymal stem cells [5] and in the assay on Mesenchymal stem cells [6] was Active. In addition, the outcome in the assay with Mesenchymal stem cells [2], in the assay with Mesenchymal stem cells [3] and in the assay on Mesenchymal stem cells [4] was inactive.
In the case of `Cc1nc(-c2ccc(C(F)(F)F)c(F)c2)sc1CN(C)c1ccc(/C=C/C(=O)O)cc1`, the result in the assay with Mesenchymal stem cells [1] and in the assay on Mesenchymal stem cells [6] was Active. Moreover, the outcome in the assay with Mesenchymal stem cells [2], with Mesenchymal stem cells [3], in the assay with Mesenchymal stem cells [4] and with Mesenchymal stem cells [5] was inactive.
Consider `COC(=O)/C=C/c1ccc(OCc2sc(-c3ccc(C(F)(F)F)cc3)nc2C)cc1`, for which the outcome in the assay on Mesenchymal stem cells [1] was inactive. Moreover, the result in the assay with Mesenchymal stem cells [3] was Active.
As for `Cc1nc(-c2ccccc2)sc1CNc1ccc(/C=C/C(=O)O)cc1`, the result with Mesenchymal stem cells [1], in the assay with Mesenchymal stem cells [3] and with Mesenchymal stem cells [5] was Active. In addition, the outcome in the assay with Mesenchymal stem cells [4] was inactive.
As for `Cc1nn(-c2ccc(C(F)(F)F)cc2)nc1CN(C)c1ccc(/C=C/C(=O)O)cc1`, the result in the assay with Mesenchymal stem cells [1], in the assay with Mesenchymal stem cells [2] and with Mesenchymal stem cells [4] was Active. Moreover, the outcome in the assay with Mesenchymal stem cells [3], with Mesenchymal stem cells [5] and in the assay on Mesenchymal stem cells [6] was inactive.
Regarding `CCN(Cc1sc(-c2ccc(C(F)(F)F)cc2)nc1C)c1ccc(/C=C/C(=O)O)cc1`, the result with Mesenchymal stem cells [1], with Mesenchymal stem cells [2], with Mesenchymal stem cells [3], in the assay with Mesenchymal stem cells [4], in the assay with Mesenchymal stem cells [5] and in the assay on Mesenchymal stem cells [6] was Active.
Turning to `Cc1nc(-c2cccc(C(F)(F)F)c2)sc1CN(C)c1ccc(/C=C/C(=O)O)cc1`, the result in the assay with Mesenchymal stem cells [1], in the assay on Mesenchymal stem cells [5] and in the assay with Mesenchymal stem cells [6] was Active. In addition, the outcome in the assay with Mesenchymal stem cells [2], in the assay on Mesenchymal stem cells [3] and with Mesenchymal stem cells [4] was inactive.
`Cc1nc(-c2ccc(C(F)(F)F)cc2)sc1CN(Cc1sc(-c2ccc(C(F)(F)F)cc2)nc1C)c1ccc(/C=C/C(=O)O)cc1`: in the assay with Mesenchymal stem cells [1], the result was Active. For the same molecule, the outcome in the assay with Mesenchymal stem cells [3], in the assay with Mesenchymal stem cells [4] and with Mesenchymal stem cells [5] was inactive.

Source of the values: ChEMBL document CHEMBL5032493, “Synthesis and Evaluation of PPARδ Agonists That Promote Osteogenesis in a Human Mesenchymal Stem Cell Culture and in a Mouse Model of Human Osteoporosis” (J Med Chem, 2021).
